This is an account of results in patent publication EP3254699B1, “SOLID DISPERSION CONTAINING DUTASTERIDE, AND COMPOSITION CONTAINING SAME” (Whanin Pharmaceutical. Co., Ltd., priority 2015, dated 2016).

Like-named read-outs stand apart in the source and are kept apart here.

Data set [1] in a line: Solubility of dutasteride: powder suspended in water at the supersaturation concentration of 1 mg/ml, 0.45 um filtering, HPLC. In kind it is physicochemical. The conditions noted are these: raw material of dutasteride itself, compared in Experimental Example 4. As for the experimental part: Alpha-cyclodextrin, beta-cyclodextrin, gamma-cyclodextrin and hydroxypropyl-beta-cyclodextrin were dissolved in water, respectively, and dutasteride was dissolved in the same amount of ethanol. Then, the two liquids were mixed to form an inclusion complex. In this case, the weight ratio of dutasteride and cyclodextrin was 1:100. The inclusion complex of cyclodextrin and dutasteride in the form of powder was obtained from the mixture solution of ethanol and distilled water through a drying process, followed by suspension in water at the supersaturation concentration of 1 mg/ml. The solubility was measured with HPLC after 0.45 um filtering. The analysis conditions and the result of solubility are as shown below.
• Column: Zobrax SB-Phenyl (150 mm x 3.0 mm, 3.5 um) or a column equivalent thereto • Mobile phase: Mixture liquid of acetonitrile and purified water (55:45, v/v) • Wavelength of detection: UV, 240 nm • Amount of injection: 50 uL • Flow rate: 0.5 mL/min
Gamma-cyclodextrin was dissolved in water, and dutasteride, polyvinyl pyrrolidone and gelucire (macrogol glyceride) were dissolved in the same amount of ethanol. Then, the experiment was performed as in Experimental Example 1 to evaluate the solubility of dutasteride.

The conditions of data set [2]: cited from earlier work.

On to `C[C@]12C=CC(=O)N[C@@H]1CC[C@@H]1[C@@H]2CC[C@]2(C)[C@@H](C(=O)Nc3cc(C(F)(F)F)ccc3C(F)(F)F)CC[C@@H]12` [dutasteride], for which the Solubility of dutasteride entry in data set [1] is “not detected”; in data set [2] (in ethanol), 44 mg/mL; in data set [2] (in methanol), 64 mg/mL; in data set [2] (in polyethylene glycol 400), 3 mg/mL; in data set [2] (in water), “poorly soluble”.
